Patent US11767295B2, “Isoindole derivative” (TIANJIN HEMAY PHARMACEUTICAL CO., LTD., priority 2018, dated 2023)

What was measured:
Format in all cases: in vivo
[1] = test system: Phorbol ester (TPA)-induced ear swelling in mice; experiment: Inhibition of phorbol ester (TPA)-induced ear swelling in mice (Biological Example 5); settings: ICR mice, 5 hours after TPA modeling; for Ear Swelling Rate / Inhibitory Rate of Ear Swelling Degree: 2 mg/mouse on right ear; for Ear Swelling Rate: (right−left)/left ear weight; for Inhibitory Rate of Ear Swelling Degree: vs model and blank control; for Ear Swelling Degree: 50 mg/mL in acetone, 40 μL in 2 administrations (2 mg/mouse)
Protocol: (§1) 72 male ICR mice were selected and divided into 9 groups. There were 8 mice in each group.
(§2) Before the test, the animals were grouped and the hair around the right ear of the mice was removed.
(§3) 20 μL of respective drug was applied to the animals in each test group (a blank solvent was applied to the model control group). Modeling and induction were carried out after 1 h 10 min. Except for the blank group, 20 μL of TPA at a concentration of 125 μg/mL were applied to the right ears of the animals for induction. After induction for 10 minutes, 20 μL of respective drug were applied to the right ears of the animals in each test group (a blank solvent was applied to the model control group).
After modeling for 5 hours, ear pieces of both sides on the same location of animals in each group were taken with a punch and weighed to calculate the ear swelling degree, ear swelling rate and inhibitory rate.
(§4) The ear swelling degree and ear swelling rate after modeling and administration for 5 hours were analyzed and tested with One-Way ANOVA multiple-group test index in SPSS17.0. P<0.05 indicated there were statistical differences. Ear swelling degree (mg)=right ear weight (mg)−left ear weight (mg); Ear swelling rate (%)=(right ear weight−left ear weight)/left ear weight×100%; Inhibitory rate of ear swelling degree (%)=1−(ear swelling degree of drug administration group−ear swelling degree of blank control group)/(ear swelling degree of model control group−ear swelling degree of blank control group)×100%.

[2] = test system: DNCB-induced atopic dermatitis in Balb/c mice; experiment: Efficacy evaluation test of DNCB-induced atopic dermatitis in Balb/c mice model (Biological Example 1); settings: BID × 10
Protocol: 60 healthy male SPF Balb/c mice, each of which the body weight was 19-21 g, were randomly divided into 6 groups by body weight. There were 10 mice in each group.
(§5) Before the test, the hair around the right ear of the mouse was removed to reduce the interference in the drug adhesion to the hair.
(§6) The start of the test was recorded as Day 1. The specific time for measuring ear thickness was slightly adjusted based on FIG. 1. After the end of the 18th day of the test, blood was taken from each animal to detect the concentration of immunoglobulin (IgE) in the serum (in accordance with the kit instructions). Both ears of the animal were cut off. Ear pieces were cut by an 8 mm punch at the fixed position of the ears and weighed. Differences in the swelling degrees of two ears were calculated.
The changes in mouse ear thickness and the ear weights of the same area and the IgE concentrations in the serum among different groups on the 18th day were analyzed and compared statistically with One-Way Anova in SPSS 17, respectively. The G test method was used to delete outliers. p<0.05 indicated there were statistical differences. Ear swelling degree (mg)=right ear weight (mg)−left ear weight (mg); Ear thickness change (mm)=right ear thickness (mm)−left ear thickness (mm); Inhibitory rate of ear swelling degree (%)=1−(ear swelling degree of drug administration group−ear swelling degree of blank control group)/(ear swelling degree of model control group−ear swelling degree of blank control group)×100%; Inhibitory rate of ear thickness change (%)=1−(ear thickness change of drug administration group−ear thickness change of blank control group)/(ear thickness change of model control group−ear thickness change of blank control group)×100%; Inhibitory rate of IgE (%)=1−(IgE concentration in administration group−IgE concentration in blank control group)/(IgE concentration in model control group−IgE concentration in blank control group)×100%.

ICR mice = experiment: Acute toxicity test of single gavage in mice (Biological Example 9); settings: single gavage 2000 mg/Kg; for Clinical observation: appearance, breath, behavior, reflex and defecation / Dissection and general observation of each organ / Organ indexes / Death of animals: ICR mice; for Clinical observation: appearance, breath, behavior, reflex and defecation: male and female; for Death of animals: 3 male and 3 female, until the end of the test
Protocol: 30 healthy ICR mice of SPF grade were randomly divided into 5 groups according to the gender segment, in which 15 mice were male and 15 mice were female. There were 3 mice/gender/group. There were 6 mice in each group, in which 3 mice were male and 3 mice were female.
Single administration by gavage was carried out. The symptoms and responses of all the animals were observed after the administration and were recorded faithfully. The test was observed continuously for 15 days. The symptoms of the animals were recorded. After the test, the tissues and organs of all the animals were weighed, observed and recorded. The specimens were kept.
Body weight, appearance, breath, behavior, reflex and defecation.

[3] = test system: DNCB-induced atopic dermatitis in Balb/c mice; experiment: Efficacy evaluation test of DNCB-induced atopic dermatitis in Balb/c mice model (Biological Example 2); settings: BID × 10; for Inhibitory Rate of Ear Swelling / Weight Changes of Animals, Day 10 / Weight Changes of Animals, Day 17 / Weight Changes of Animals, Day 18 / Ear Swelling Degree / IgE Concentration / Inhibitory Rate of IgE Concentration: 1 mg/mouse on ear; for Inhibitory Rate of Ear Swelling / Ear Swelling Degree / IgE Concentration / Inhibitory Rate of IgE Concentration: 18th day; for Inhibitory Rate of Ear Swelling / Inhibitory Rate of IgE Concentration: vs model and blank control; for Weight Changes of Animals, Day 1 / Weight Changes of Animals, Day 10 / Weight Changes of Animals, Day 17 / Weight Changes of Animals, Day 18: Balb/c mice, Mean ± S.D.; for Weight Changes of Animals, Day 1: 1 mg/mouse (50 mg/mL, 20 μL) on ear; for Ear Swelling Degree: right minus left ear piece weight; for IgE Concentration / Inhibitory Rate of IgE Concentration: serum
Protocol: 70 healthy male SPF Balb/c mice, each of which the weight was 19-21 g, were randomly divided into 7 groups by body weight. There were 10 mice in each group.
as §5
as §6, with “Day” for “Day 1. The specific time for measuring ear thickness was slightly adjusted based on FIG.”
The IgE concentrations in the serum of different groups on the 18th day were analyzed and compared statistically with One-Way Anova in SPSS 17, respectively. The G test method was used to delete outliers. p<0.05 indicated there were statistical differences. Ear swelling degree (mg)=right ear weight (mg)−left ear weight (mg); Inhibitory rate of ear swelling degree (%)=1−(ear swelling degree of drug administration group−ear swelling degree of blank control group)/(ear swelling degree of model control group−ear swelling degree of blank control group)×100%; Inhibitory rate of IgE (%)=1−(IgE concentration in administration group−IgE concentration in blank control group)/(IgE concentration in model control group−IgE concentration in blank control group)×100%.

[4] = test system: Phorbol ester (TPA)-induced ear swelling in mice; experiment: Inhibition of phorbol ester (TPA)-induced ear swelling in mice (Biological Example 6); settings: ICR mice, 5 hours after TPA modeling; for Ear Swelling Rate / Inhibitory Rate of Ear Swelling Degree: 2 mg/mouse on right ear; for Ear Swelling Rate: (right−left)/left ear weight; for Inhibitory Rate of Ear Swelling Degree: vs model and blank control; for Ear Swelling Degree: 50 mg/mL in acetone, 40 μL in 2 administrations (2 mg/mouse)
Protocol: as §1, §2, §3
After modeling for 5 hours, ear pieces of both sides at the same location of animals in each group were taken with a punch and weighed to calculate the ear swelling degree, ear swelling rate and inhibitory rate.
as §4, with “P<0.05 indicated there were statistical differences.” left out, “(%)=1−(swelling” for “(%)=1−(ear swelling”, “group−swelling” for “group−ear swelling”, “group)/(swelling” for “group)/(ear swelling”

[5] = Balb/c mice, 1 mg/mouse on ear, Day 10, Mean ± S.D.
[6] = Balb/c mice, 1 mg/mouse on ear, Day 17, Mean ± S.D.
[7] = Balb/c mice, 1 mg/mouse on ear, Day 18, Mean ± S.D.
[8] = female ICR mice, observed 15 days
[9] = female ICR mice, end of the test
[10] = surviving male ICR mice, end of the experiment

Row | Structure (SMILES) | Ear Swelling Rate [1] [%] | Inhibitory Rate of Ear Swelling Degree [1] [%] | Ear Swelling Degree [1] [mg] | Clinical observation: appearance, breath, behavior, reflex and defecation (ICR mice; observed 15 days) | Dissection and general observation of each organ (ICR mice; end of the test) | Organ indexes (ICR mice; end of the test) | Inhibitory Rate of Ear Swelling [3] [%] | Weight Changes of Animals, Day 1 [3] [g] | Weight Changes of Animals, Day 10 [3] [g] | Weight Changes of Animals, Day 17 [3] [g] | Weight Changes of Animals, Day 18 [3] [g] | Ear Swelling Degree [3] [mg] | IgE Concentration [3] [ng/mL] | Inhibitory Rate of IgE Concentration [3] [%] | Death of animals (ICR mice) | Clinical observation, female animals (ICR mice; [8]) | Ear Swelling Rate [4] [%] | Inhibitory Rate of Ear Swelling Degree [4] [%] | Ear Swelling Degree [4] [mg] | other results
1 | CCCOC(=O)CC(c1ccc(OC)c(OCC)c1)N1C(=O)c2cccc(NC(C)=O)c2C1=O (stereo not drawn) [Example 11, propyl 3-(4-acetamido-1,3-dioxoisoindolin-2-yl)-3-(3-ethoxy-4-methoxyphenyl)propionate] | 46.3 ± 35.7 | 81.7 | 6.5 ± 5.0 | No obvious abnormalities of appearance, breath, behavior, | No obvious abnormalities related to the compounds were | No obvious abnormalities of organ indexes were observed. | – | – | – | – | – | – | – | – | – | – | – | – | – | Inhibitory Rate of Ear Swelling Degree ([2]; 1 mg/mouse on ear, 18th day, vs model and blank control): 49.2%; Weight Changes of Animals, Day 1 ([2]; Balb/c mice, 1 mg/mouse (50 mg/mL, 20 μL) on ear, Day 1, Mean ± S.D.): 20.3 ± 1.3 g; Inhibitory Rate of Ear Thickness ([2]; Balb/c mice, 1 mg/mouse on ear, 18th day, vs model and blank control): 51.5%; Ear Thickness Change, Day 1 ([2]; Balb/c mice, 1 mg/mouse on ear, Day 1, Mean ± S.D.): 0.22 ± 0.01 mm; Ear Thickness Change, Day 10 [2, 5]: 0.33 ± 0.09 mm; Weight Changes of Animals, Day 10 [2, 5]: 21.6 ± 1.1 g; Ear Thickness Change, Day 17 [2, 6]: 0.35 ± 0.04 mm; Weight Changes of Animals, Day 17 [2, 6]: 21.2 ± 1.2 g; Ear Thickness Change, Day 18 [2, 7]: 0.48 ± 0.06 mm; Weight Changes of Animals, Day 18 [2, 7]: 21.1 ± 1.3 g; Ear Thickness ([2]; Table 4, Balb/c mice, 1 mg/mouse on ear, 18th day): 0.48 ± 0.06 mm; Ear Swelling Degree ([2]; right minus left ear piece weight (8 mm punch), 1 mg/mouse on ear, 18th day): 12.8 ± 4.9 mg; IgE Concentration ([2]; serum, 1 mg/mouse on ear, 18th day): 5854.5 ± 2631.7 ng/mL; Inhibitory Rate of IgE Concentration ([2]; serum, 1 mg/mouse on ear, 18th day, vs model and blank control): 36.5%
2 | COC(=O)C[C@@H](c1ccc(OC)c(OC(C)C)c1)N1C(=O)c2cccc(NC(C)=O)c2C1=O [Example 54, methyl (S)-3-(4-acetamido-1,3-dioxoisoindolin-2-yl)-3-(3-isopropoxy-4-methoxyphenyl)propionate] | – | – | – | The main symptom after administration was reduced | – | – | 43.1 | 21.6 ± 0.6 | 22.6 ± 0.8 | 23.3 ± 1.2 | 23.1 ± 1.2 | 16.7 ± 3.0 | 4873.7 ± 1356.2 | 45.9 | activity. No death or abnormality of animals was observed | – | – | – | – | –
3 | CCOc1ccc(C(CC(=O)OC)N2C(=O)c3cccc(NC(C)=O)c3C2=O)cc1OCC (stereo not drawn) [Example 4, methyl 3-(4-acetamido-1,3-dioxoisoindolin-2-yl)-3-(3,4-diethoxyphenyl)propionate] | 34.3 ± 18.2 | 88.8 | 4.8 ± 2.1 | – | – | – | – | – | – | – | – | – | – | – | – | After administration, no abnormalities of female animals | – | – | – | Clinical observation, male animals (ICR mice; male ICR mice, observed 15 days): The male animals had reduced activity and recovered after
4 | CCCOc1ccc(C(CC(=O)OC)N2C(=O)c3cccc(NC(C)=O)c3C2=O)cc1OCC (stereo not drawn) [Example 31, methyl 3-(4-acetamido-1,3-dioxoisoindolin-2-yl)-3-(3-ethoxy-4-propoxyphenyl)propionate] | – | – | – | No obvious abnormalities of appearance, breath, behavior, | No obvious abnormalities related to the compounds were | No obvious abnormalities of organ indexes were observed. | – | – | – | – | – | – | – | – | – | – | 34.3 ± 14.9 | 87.6 | 4.9 ± 2.0 | –
5 | COC(=O)CC(c1ccc(OC)c(OC(C)C)c1)N1C(=O)c2cccc(NC(C)=O)c2C1=O (stereo not drawn) [Example 46, methyl 3-(4-acetamido-1,3-dioxoisoindolin-2-yl)-3-(3-isopropoxy-4-methoxyphenyl)propionate] | – | – | – | – | – | – | 36.2 | 21.6 ± 0.7 | 22.6 ± 0.6 | 23.0 ± 0.7 | 23.1 ± 0.7 | 18.6 ± 3.9 | 4429.8 ± 1713.9 | 51.7 | – | – | 44.9 ± 35.5 | 82.0 | 6.4 ± 5.3 | –
6 | CCOC(=O)C[C@@H](c1ccc(OC)c(OCC)c1)N1C(=O)c2cccc(NC(C)=O)c2C1=O [Example 52, ethyl (S)-3-(4-acetamido-1,3-dioxoisoindolin-2-yl)-3-(3-ethoxy-4-methoxyphenyl)propionate] | – | – | – | – | – | – | 60.1 | 21.8 ± 0.5 | 22.6 ± 0.9 | 24.3 ± 5.6 | 24.2 ± 6.0 | 12.0 ± 5.4 | 4141.5 ± 2315.0 | 55.5 | 1 male animal died in the second day of the test. It was | No obvious abnormalities in female animals were observed | – | – | – | Gross anatomy, female animals (ICR mice; [9]): until the end of the test. No abnormalities of gross anatomy; Organ indexes, female animals (ICR mice; [9]): until the end of the test. No abnormalities of gross anatomy; Gross anatomy, male animals (ICR mice; [10]): observed until the end of the experiment. No abnormalities; Organ indexes, male animals (ICR mice; [10]): observed until the end of the experiment. No abnormalities
